# Assay results published in patent publication US7718673B2, “Isonipecotamides for the treatment of integrin-mediated disorders” (Ortho-McNeil Pharmaceutical, Inc., priority 1999, dated 2010).
# Like-named read-outs stand apart in the source and are kept apart here.
# How the values were obtained:
# human purified αvβ5 = biological target: T1, human purified αvβ5 (Homo sapiens, UniProt P06756+P18084); assay: In vitro solid phase purified αvβ5 binding assay (vitronectin/αvβ5); conditions: for IC50: vitronectin binding to immobilized αvβ5; for inhibition at 5 µM: read-out: αvβ5 Percent inhibition at 5 μM
# T1 construct: purchased Chemicon International, Inc
# T1 sequence (P06756 31-889 limits assumed): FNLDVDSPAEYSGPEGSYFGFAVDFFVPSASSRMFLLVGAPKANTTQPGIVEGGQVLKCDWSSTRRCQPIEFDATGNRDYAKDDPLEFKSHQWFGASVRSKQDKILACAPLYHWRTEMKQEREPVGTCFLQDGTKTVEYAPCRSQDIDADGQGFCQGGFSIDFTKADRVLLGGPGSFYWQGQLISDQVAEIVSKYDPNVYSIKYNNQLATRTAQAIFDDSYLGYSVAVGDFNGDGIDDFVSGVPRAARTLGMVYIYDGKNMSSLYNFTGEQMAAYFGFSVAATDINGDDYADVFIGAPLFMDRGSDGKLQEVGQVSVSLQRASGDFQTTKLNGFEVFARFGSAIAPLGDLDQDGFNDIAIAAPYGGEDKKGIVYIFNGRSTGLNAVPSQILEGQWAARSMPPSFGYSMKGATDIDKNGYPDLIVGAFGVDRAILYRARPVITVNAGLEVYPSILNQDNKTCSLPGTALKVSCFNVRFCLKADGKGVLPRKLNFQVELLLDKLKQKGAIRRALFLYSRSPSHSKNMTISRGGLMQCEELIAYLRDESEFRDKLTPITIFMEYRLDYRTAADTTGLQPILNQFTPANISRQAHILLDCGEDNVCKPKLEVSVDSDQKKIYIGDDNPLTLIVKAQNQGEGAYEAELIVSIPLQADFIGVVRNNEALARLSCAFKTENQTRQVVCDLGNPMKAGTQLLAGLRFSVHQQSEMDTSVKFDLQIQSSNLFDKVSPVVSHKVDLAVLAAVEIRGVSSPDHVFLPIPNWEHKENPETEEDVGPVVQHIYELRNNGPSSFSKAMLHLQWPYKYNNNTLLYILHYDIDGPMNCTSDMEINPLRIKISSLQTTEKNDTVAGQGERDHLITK
# T1 sequence (P06756 891-1048 partner limits assumed): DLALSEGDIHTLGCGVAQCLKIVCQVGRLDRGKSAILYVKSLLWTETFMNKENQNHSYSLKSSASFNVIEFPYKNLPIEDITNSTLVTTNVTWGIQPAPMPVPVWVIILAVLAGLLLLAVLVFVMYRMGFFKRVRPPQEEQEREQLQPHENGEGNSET
# T1 sequence (P18084 24-799): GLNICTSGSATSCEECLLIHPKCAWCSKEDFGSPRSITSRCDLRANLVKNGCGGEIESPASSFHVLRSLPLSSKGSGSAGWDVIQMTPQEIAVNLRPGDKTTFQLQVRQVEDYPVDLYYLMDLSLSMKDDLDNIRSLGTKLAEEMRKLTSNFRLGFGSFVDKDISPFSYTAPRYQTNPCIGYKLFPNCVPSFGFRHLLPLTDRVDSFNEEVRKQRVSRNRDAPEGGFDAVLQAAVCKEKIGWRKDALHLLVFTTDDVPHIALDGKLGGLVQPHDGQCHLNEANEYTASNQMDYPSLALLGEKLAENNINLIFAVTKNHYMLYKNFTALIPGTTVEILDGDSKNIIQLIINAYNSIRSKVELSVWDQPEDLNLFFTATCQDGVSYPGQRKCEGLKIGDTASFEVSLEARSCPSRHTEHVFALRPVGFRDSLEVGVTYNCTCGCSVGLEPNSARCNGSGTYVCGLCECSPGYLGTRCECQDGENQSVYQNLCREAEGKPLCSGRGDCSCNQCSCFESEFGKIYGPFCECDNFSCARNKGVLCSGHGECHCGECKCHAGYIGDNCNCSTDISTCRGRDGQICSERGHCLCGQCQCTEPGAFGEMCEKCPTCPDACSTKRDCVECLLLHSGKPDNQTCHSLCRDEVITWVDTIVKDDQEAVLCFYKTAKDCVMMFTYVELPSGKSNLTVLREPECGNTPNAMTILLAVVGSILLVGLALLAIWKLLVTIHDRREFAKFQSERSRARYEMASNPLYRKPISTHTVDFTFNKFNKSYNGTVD
# Description: (§1) The vitronectin/αvβ3 binding assay methods were derived from Mehta et al. (Biochem J. 1998, 330, 861). Human αvβ3 (Chemicon International Inc., Temecula, Calif.), at a concentration of 1 μg/ml dissolved in Tris buffer (20 mM Tris, 1 mM CaCl2, […], 10 μM MnCl2, 150 mM NaCl), was immobilized on Immulon 96 well plates (Dynex Technologies, Chantilly, Va.) overnight at 4° C. Plates were washed and treated with blocking buffer (3% BSA in Tris buffer) for 2 h at 37° C. Plates were then rinsed 2 times with Tris buffer containing 0.3% BSA and 0.2% Tween20 (polyoxyethylenesorbitan monolaurate). Five minutes prior to the addition of 5 nM vitronectin (Sigma, St. Louis, Mo.), synthesized compounds were added to wells in duplicate. Each plate included c-RGDfV as an internal control. Following a 3 hour incubation at 37° C., plates were washed 5 times in assay buffer. An anti-human vitronectin IgG rabbit polyclonal antibody (Calbiochem, San Diego, Calif.) was added (1:2000) and plates were incubated for 1 hour at room temperature. VectaStain ABC peroxidase kit reagents (Vector Laboratories, Burlingame, Calif.) employing a biotin labeled anti-rabbit IgG, were utilized for detection of bound antibody. Plates were read at 490 nm on a Molecular Devices (Sunnyvale, Calif.) microplate reader.
# In Vitro Solid Phase Purified αvβ5 Binding Assay
# The vitronectin/αvβ5 binding assay method was performed in the same manner as the vitronectin/αvβ3 binding assay (EXAMPLE 64) immobilizing with 1 μg/ml of human purified αvβ5 (Chemicon International, Inc.) on to Immulon 96 well plates (Dynex Technologies) instead of αvβ3. All other aspects of the assay including buffers, reagents, and incubation times remain unchanged.
# Human αvβ3 = biological target: T2, Human αvβ3 (Homo sapiens, UniProt P05106+P06756); assay: In vitro solid phase purified αvβ3 binding assay (vitronectin/αvβ3)
# T2 construct: purchased Chemicon International Inc., Temecula, Calif
# T2 sequence (P06756 31-889 limits assumed): as the sequence (P06756 31-889 limits assumed) above
# T2 sequence (P06756 891-1048 partner limits assumed): as the sequence (P06756 891-1048 partner limits assumed) above
# T2 sequence (P05106 27-788): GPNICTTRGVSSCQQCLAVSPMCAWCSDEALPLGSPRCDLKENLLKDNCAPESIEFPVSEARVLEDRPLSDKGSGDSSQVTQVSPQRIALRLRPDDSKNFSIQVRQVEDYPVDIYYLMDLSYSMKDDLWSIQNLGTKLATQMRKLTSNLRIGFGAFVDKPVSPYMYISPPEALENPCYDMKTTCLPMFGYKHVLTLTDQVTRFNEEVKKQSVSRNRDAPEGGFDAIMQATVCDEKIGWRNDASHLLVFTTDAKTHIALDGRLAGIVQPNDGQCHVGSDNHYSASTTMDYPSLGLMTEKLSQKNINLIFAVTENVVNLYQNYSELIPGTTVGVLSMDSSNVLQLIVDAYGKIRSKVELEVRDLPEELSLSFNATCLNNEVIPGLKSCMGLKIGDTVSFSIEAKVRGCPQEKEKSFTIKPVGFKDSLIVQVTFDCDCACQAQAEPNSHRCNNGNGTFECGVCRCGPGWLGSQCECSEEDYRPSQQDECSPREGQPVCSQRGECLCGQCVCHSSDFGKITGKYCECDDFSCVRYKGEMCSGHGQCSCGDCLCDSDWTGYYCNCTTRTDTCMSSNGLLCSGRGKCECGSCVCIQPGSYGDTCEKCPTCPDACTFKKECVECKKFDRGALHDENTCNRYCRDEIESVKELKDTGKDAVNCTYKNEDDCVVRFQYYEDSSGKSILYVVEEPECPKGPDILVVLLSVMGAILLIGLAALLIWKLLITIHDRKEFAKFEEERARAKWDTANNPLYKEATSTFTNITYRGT
# Description: In Vitro Solid Phase Purified αvβ3 Binding Assay
# as §1
# [1] = biological target: RGD-affinity purified GPIIb/IIIa (Homo sapiens, UniProt P05106+P08514); assay: In vitro solid phase purified GPIIb/IIIa binding assay (biotinylated fibrinogen); conditions: fibrinogen binding to immobilized GPIIb/IIIa; read-out: IIb/IIIa IC50
# Sequence of RGD-affinity purified GPIIb/IIIa (P08514 32-887 limits assumed): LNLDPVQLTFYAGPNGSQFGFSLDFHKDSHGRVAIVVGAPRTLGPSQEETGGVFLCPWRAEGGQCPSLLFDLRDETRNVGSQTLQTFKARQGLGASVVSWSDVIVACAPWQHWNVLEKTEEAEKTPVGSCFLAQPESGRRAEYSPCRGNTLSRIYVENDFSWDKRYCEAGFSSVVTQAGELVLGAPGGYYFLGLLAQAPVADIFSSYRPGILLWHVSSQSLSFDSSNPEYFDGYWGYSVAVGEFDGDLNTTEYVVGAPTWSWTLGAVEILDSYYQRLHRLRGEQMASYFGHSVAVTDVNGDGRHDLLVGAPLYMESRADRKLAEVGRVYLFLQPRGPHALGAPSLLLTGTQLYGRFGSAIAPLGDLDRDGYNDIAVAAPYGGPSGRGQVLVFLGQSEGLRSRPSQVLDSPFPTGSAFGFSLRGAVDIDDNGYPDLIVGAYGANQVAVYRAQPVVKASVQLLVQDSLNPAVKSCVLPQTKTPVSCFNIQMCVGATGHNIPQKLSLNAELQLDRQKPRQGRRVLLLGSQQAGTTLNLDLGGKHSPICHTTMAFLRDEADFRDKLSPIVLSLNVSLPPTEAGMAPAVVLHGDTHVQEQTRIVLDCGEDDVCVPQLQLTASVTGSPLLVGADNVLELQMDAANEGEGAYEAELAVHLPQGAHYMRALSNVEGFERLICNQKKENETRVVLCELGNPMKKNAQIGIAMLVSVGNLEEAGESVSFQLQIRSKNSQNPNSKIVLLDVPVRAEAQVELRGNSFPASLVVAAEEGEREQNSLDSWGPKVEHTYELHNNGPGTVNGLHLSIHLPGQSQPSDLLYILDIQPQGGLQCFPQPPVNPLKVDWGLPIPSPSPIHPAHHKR
# Sequence of RGD-affinity purified GPIIb/IIIa (P08514 891-1039 partner limits assumed): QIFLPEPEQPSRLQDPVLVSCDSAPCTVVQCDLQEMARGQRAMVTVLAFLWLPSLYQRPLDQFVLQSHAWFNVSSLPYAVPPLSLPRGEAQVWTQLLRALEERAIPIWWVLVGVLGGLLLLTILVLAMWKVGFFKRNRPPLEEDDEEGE
# Sequence of RGD-affinity purified GPIIb/IIIa (P05106 27-788): as the sequence (P05106 27-788) above
# Description: In Vitro Solid Phase Purified GP IIB/IIIA Binding Assay
# The plate was covered and incubated overnight at 4° C. The GPIIb/IIIa solution was discarded and 150 μl of 5% BSA was added and incubated at RT for 1-3 h. The plate was washed extensively with modified Tyrodes buffer. Biotinylated fibrinogen (25 μl/well) at 2× final concentration was added to the wells that contain the test compounds (25 μl/well). The plate was covered and incubated at RT for 2-4 h. Twenty minutes prior to incubation completion, one drop of Reagent A (VectaStain ABC Horse Radish Peroxidase kit, Vector Laboratories, Inc.) and one drop Reagent B were added with mixing to 5 mL modified Tyrodes buffer mix and let stand. The ligand solution was discarded and the plate washed (5×200 μl/well) with modified Tyrodes buffer. Vecta Stain HRP-Biotin-Avidin reagent (50 μl/well, as prepared above) was added and incubated at RT for 15 min. The Vecta Stain solution was discarded and the wells washed (5×200 μl/well) with modified Tyrodes buffer. Developing buffer (10 mL of 50 mM citrate/phosphate buffer @ pH 5.3, 6 mg o-phenylenediamine, 6 μl 30% H2O2; 50 μl/well) was added and incubated at RT for 3-5 min, and then 2 NH2SO4 (50 μl/well) was added. The absorbance was read at 490 nm.
# [2] = vitronectin binding to immobilized αvβ3, read-out: αvβ3 IC50
smiles,measurement,setting,value
"O=C(O)C[C@H](NC(=O)C1CCN(C(=O)CCCNC2=NCCN2)CC1)c1cnc2ccccc2c1 [Compound 1, β-[[[1-[4-[(4,5-dihydro-1H-imidazol-2-yl)amino]-1-oxobutyl]-4-piperidinyl]carbonyl]amino]-, (β^3S)-3-quinolinepropanoic acid]",IC50,human purified αvβ5,25 nM
same,IC50,Human αvβ3,3.7 nM
same,IC50,[1],30 nM
CCN(CC)C(=O)COC(=O)CC(NC(=O)C1CCN(C(=O)CCCNC2=NCCN2)CC1)c1cnc2ccccc2c1 (centres unmarked) [Compound 46],IC50,human purified αvβ5,> 5000 nM
same,IC50,Human αvβ3; [2],150 nM
same,IC50,[1],1600 nM
COC(=O)C[C@H](NC(=O)C1CCN(C(=O)CCCNC2=NCCN2)CC1)c1cnc2ccccc2c1 [Compound 44],IC50,human purified αvβ5,2900 nM
same,IC50,Human αvβ3; [2],28 nM
same,IC50,[1],360 nM
CC(CNC1=NCCN1)C(=O)N1CCC(C(=O)N[C@@H](CC(=O)O)c2cccnc2)CC1 (some centres unmarked) [Compound 52],IC50,human purified αvβ5,760 nM
same,IC50,Human αvβ3; [2],250 nM
same,IC50,[1],2700 nM
"O=C(O)C[C@H](NC(=O)C1CCN(C(=O)CCCNc2ccccn2)CC1)c1cnc2ccccc2c1 [Compound 6, β-[[[1-[1-oxo-4-(2-pyridinylamino)butyl]-4-piperidinyl]carbonyl]amino]-, (β^3S)-3-quinolinepropanoic acid]",IC50,Human αvβ3; [2],4 nM
same,IC50,[1],460 nM
same,melting point,,87 to 90 °C
CCN(CC)C(=O)COC(=O)CC(NC(=O)C1CCN(C(=O)CCCNC2=NCCN2C(=O)OC(C)(C)C)CC1)c1cnc2ccccc2c1 (centres unmarked) [Compound 45],inhibition at 5 µM,human purified αvβ5,40%
same,IC50,Human αvβ3; [2],3700 nM
same,IC50,[1],14000 nM
"C=CC(N)CCC(=O)N1CCC(C(=O)NC[C@H](NC(=O)OCc2ccccc2)C(=O)O)CC1 (stereo partly drawn) [Compound 50, 3-[[[1-(4-amino-1-oxo-5-hexenyl)-4-piperidinyl]carbonyl]amino]-N-[(phenylmethoxy)carbonyl]-L-alanine]",inhibition at 5 µM,human purified αvβ5,38%
same,IC50,Human αvβ3; [2],3900 nM
same,IC50,[1],7.4 nM
"O=C(N[C@@H](CNC(=O)C1CCN(C(=O)CCCNC2=NCCN2)CC1)C(=O)O)OCc1ccccc1 [Compound 2, 3-[[[1-[4-[(4,5-dihydro-1H-imidazol-2-yl)amino]-1-oxobutyl]-4-piperidinyl]carbonyl]amino]-N-[(phenylmethoxy)carbonyl]-L-alanine]",IC50,human purified αvβ5,21 nM
same,IC50,Human αvβ3; [2],5.8 nM
same,IC50,[1],8.9 nM
N=C(N)NOCCC(=O)N1CCC(C(=O)NC[C@H](NC(=O)OCc2ccccc2)C(=O)O)CC1 [Compound 58],IC50,human purified αvβ5,71 nM
same,IC50,Human αvβ3; [2],40 nM
same,IC50,[1],260 nM
COc1ccc(C(CC(=O)O)NC(=O)C2CCN(C(=O)CCCNC3=NCCN3)CC2)cc1OC (centres unmarked) [Compound 34],IC50,human purified αvβ5,> 5000 nM
same,IC50,Human αvβ3; [2],29 nM
same,IC50,[1],1500 nM
COC(=O)[C@H](CNC(=O)C1CCN(C(=O)C(C)CNC2=NCCN2)CC1)NC(=O)OCc1ccccc1 (some centres unmarked) [Compound 51],IC50,human purified αvβ5,2000 nM
same,IC50,Human αvβ3; [2],270 nM
same,IC50,[1],290 nM
O=C(N[C@@H](CNC(=O)C1CCN(C(=O)CCONC2=NCCN2)CC1)C(=O)O)OCc1ccccc1 [Compound 60],IC50,human purified αvβ5,86 nM
same,IC50,Human αvβ3; [2],27 nM
same,IC50,[1],190 nM
"CC(CNC1=NCCN1)C(=O)N1CCC(C(=O)NC[C@H](NC(=O)OCc2ccccc2)C(=O)O)CC1 (stereo partly drawn) [Compound 16, 3-[[[1-[3-[(4,5-dihydro-1H-imidazol-2-yl)amino]-2-methyl-1-oxopropyl]-4-piperidinyl]carbonyl]amino]-N-[(phenylmethoxy)carbonyl]-L-alanine]",IC50,human purified αvβ5,38 nM
same,IC50,Human αvβ3; [2],19 nM
same,IC50,[1],18 nM
O=C(O)C[C@H](NC(=O)C1CCN(C(=O)CC2(CNC3=NCCN3)CCCCC2)CC1)c1ccc(Cl)nc1 [Compound 19],IC50,Human αvβ3; [2],320 nM
same,IC50,[1],71 nM
C=CC(CCC(=O)N1CCC(C(=O)NC[C@H](NC(=O)OCc2ccccc2)C(=O)O)CC1)NC1=NCCN1 (some centres unmarked) [Compound 49],IC50,human purified αvβ5,210 nM
same,IC50,Human αvβ3; [2],39 nM
same,IC50,[1],12 nM
O=C(N[C@@H](CNC(=O)C1CCN(C(=O)/C=C/CNC2=NCCN2)CC1)C(=O)O)OCc1ccccc1 [Compound 55],IC50,Human αvβ3; [2],12 nM
same,IC50,[1],26 nM
O=C(O)CC(NC(=O)C1CCN(C(=O)CCc2nc3ccccc3[nH]2)CC1)c1cnc2ccccc2c1 (centres unmarked) [Compound 7],IC50,Human αvβ3; [2],490 nM
same,IC50,[1],7900 nM
"CC(CNC1=NCCN1)C(=O)N1CCC(C(=O)N[C@@H](CC(=O)O)c2cnc3ccccc3c2)CC1 (stereo partly drawn) [Compound 5, β-[[[1-[3-[(4,5-dihydro-1H-imidazol-2-yl)amino]-2-methyl-1-oxopropyl]-4-piperidinyl]carbonyl]amino]-, (β^3S)-3-quinolinepropanoic acid]",IC50,Human αvβ3; [2],15 nM
same,IC50,[1],23 nM
O=C(O)CC(NC(=O)C1CCN(C(=O)CCCNC2=NCCN2)CC1)c1ccsc1 (centres unmarked) [Compound 20],IC50,Human αvβ3; [2],530 nM
same,IC50,[1],4900 nM
O=C(O)C[C@H](NC(=O)C1CCN(C(=O)CCCNc2ccccn2)CC1)c1cccnc1 [Compound 30],IC50,Human αvβ3; [2],140 nM
same,IC50,[1],56000 nM
O=C(O)CC(NC(=O)C1CCN(C(=O)CCCNC2=NCCN2)CC1)c1cc(F)cc(F)c1 (centres unmarked) [Compound 38],IC50,Human αvβ3; [2],> 300 nM
same,IC50,[1],3300 nM
"O=C(N[C@@H](CNC(=O)C1CCN(C(=O)OCCNC2=NCCN2)CC1)C(=O)O)OCc1ccccc1 [Compound 28, 4-[[[(2S)-2-carboxy-2-[[(phenylmethoxy)carbonyl]amino]ethyl]amino]carbonyl]-, 2-[(4,5-dihydro-1H-imidazol-2-yl)amino]ethyl ester 1-piperidinecarboxylic acid]",IC50,Human αvβ3; [2],8.2 nM
same,IC50,[1],1500 nM
O=C(NCCCC(=O)N1CCC(C(=O)NC[C@H](NC(=O)OCc2ccccc2)C(=O)O)CC1)NCc1ccccc1 [Compound 59],IC50,Human αvβ3; [2],160 nM
same,IC50,[1],510 nM
O=C(O)CC(NC(=O)C1CCN(C(=O)CCCNC2=NCCN2)CC1)c1cccc(C(F)(F)F)c1 (centres unmarked) [Compound 27],IC50,Human αvβ3; [2],> 500 nM
same,IC50,[1],13000 nM
